Tests used:
Male Zucker fa/fa rats [1] = test: Day-night profile of glycemia and insulinemia, day 16 to day 17 of treatment; type: in vivo, rat
Protocol: The parameters monitored were morning blood glucose and plasma insulin levels. […] An OGTT was performed finally on day 21 to monitor blood glucose and plasma insulin kinetics to assess changes in glucose tolerance. Glibenclamide (DAB 1996; R011150/33372) was donated by Berlin-Chemie (Berlin, Germany). Male Zucker (fa/fa) rats of the body weight class of 300 g were purchased from Charles River (Sulzfeld, Germany). […] Thereafter, the non-diabetic Wistar rats were treated orally once daily with RP (5 mg/kg b.w.) or TP (21.61 mg/kg b.w.) and the diabetic Zucker rats were treated orally once daily with RP (1 mg/kg b.w.) or TP (21.61 mg/kg b.w.) for 21 days at 05.00 p.m. (before regular food intake in the dark phase). The controls were given 1% cellulose solution orally (5 ml/kg). […] The oral drug therapy was continued for one week. […] Blood glucose: Glucose levels were measured using the glucose oxidase procedure (Super G Glukosemeβgerät; Dr. Müller Gerätebau, Freital, Germany). Plasma insulin: Insulin concentrations were assayed by the antibody RIA method (LINCO Research, Inc. St. Charles, Mo., USA).

[2] = target: T1, PepT1 intestinal peptide transporter (Homo sapiens, UniProt P46059); test: Active transport through the intestinal mucosa
T1 sequence (P46059 1-708): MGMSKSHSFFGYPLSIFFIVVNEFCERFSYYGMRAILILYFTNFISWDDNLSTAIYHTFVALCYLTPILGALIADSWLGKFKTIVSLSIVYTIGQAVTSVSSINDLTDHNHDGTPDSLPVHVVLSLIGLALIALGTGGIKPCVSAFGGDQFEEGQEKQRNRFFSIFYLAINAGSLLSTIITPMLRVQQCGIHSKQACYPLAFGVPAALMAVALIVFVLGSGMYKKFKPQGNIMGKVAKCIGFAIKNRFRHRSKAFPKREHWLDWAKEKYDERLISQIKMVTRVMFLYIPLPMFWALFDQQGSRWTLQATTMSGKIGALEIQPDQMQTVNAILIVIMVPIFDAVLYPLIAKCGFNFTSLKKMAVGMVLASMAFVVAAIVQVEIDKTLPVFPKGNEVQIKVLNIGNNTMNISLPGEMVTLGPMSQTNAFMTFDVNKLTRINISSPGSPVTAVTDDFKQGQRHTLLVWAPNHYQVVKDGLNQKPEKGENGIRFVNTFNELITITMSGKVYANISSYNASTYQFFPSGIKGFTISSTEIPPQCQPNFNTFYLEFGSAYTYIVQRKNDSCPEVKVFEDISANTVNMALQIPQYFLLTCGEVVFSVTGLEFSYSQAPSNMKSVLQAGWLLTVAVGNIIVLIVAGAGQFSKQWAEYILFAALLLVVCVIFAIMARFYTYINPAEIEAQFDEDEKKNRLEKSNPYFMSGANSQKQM

Male Zucker fa/fa rats [3] = test: Repeated once-daily oral dosing: morning blood glucose and plasma insulin; type: in vivo, rat
Protocol: The parameters monitored were morning blood glucose and plasma insulin levels. In a day-night profile, glycemia and insulinaemia were monitored from day 16 to day 17. An OGTT was performed finally on day 21 to monitor blood glucose and plasma insulin kinetics to assess changes in glucose tolerance. Glibenclamide (DAB 1996; R011150/33372) was donated by Berlin-Chemie (Berlin, Germany). Male Zucker (fa/fa) rats of the body weight class of 300 g were purchased from Charles River (Sulzfeld, Germany).
Housing Conditions: Animals were kept single-housed under conventional conditions with controlled temperature (22±2° C.) on a 12/12 hours light/dark cycle (light on at 06:00 a.m.). Standard pellets (ssniff®, Soest, Germany) and tap water acidified with HCl were allowed ad libitum.
Catheterization of Carotid Artery: After one week of adaptation carotid catheters were implanted in the rats under general anesthesia (injection of 0.25 ml/kg i.p. Rompun® [2%], Bayer, Germany) and 0.5 ml/kg i.p. Velonarkon® (Arzneimittelwerk Dresden, Germany). The animals were allowed to recover for one week. The catheter was flushed with heparin-saline (100 IU/ml) three times per week.
Thereafter, the non-diabetic Wistar rats were treated orally once daily with RP (5 mg/kg b.w.) or TP (21.61 mg/kg b.w.) and the diabetic Zucker rats were treated orally once daily with RP (1 mg/kg b.w.) or TP (21.61 mg/kg b.w.) for 21 days at 05.00 p.m. (before regular food intake in the dark phase). The controls were given 1% cellulose solution orally (5 ml/kg). Blood samples were taken every morning at 07.30 a.m. from tail veins for measurement of blood glucose and plasma insulin. The last blood samples of this part of the program were taken at 07.30 a. m. on the 15th day to measure blood glucose and plasma insulin. The oral drug therapy was continued for one week. Recording the day-night profile under the above therapy blood glucose (Δt=3 h) and plasma insulin (Δt=3-6 h) were monitored from day 16 (at 05.00 p.m. beginning) to day 17 (at 02.00 p.m. end).
Blood glucose: Glucose levels were measured using the glucose oxidase procedure (Super G Glukosemeβgerät; Dr. Müller Gerätebau, Freital, Germany).
Plasma insulin: Insulin concentrations were assayed by the antibody RIA method (LINCO Research, Inc. St. Charles, Mo., USA).

In the case of “isoleucyl thiazolidine hemifumarate [P32/98]”, the “Mean blood glucose, day-night profile” value (Male Zucker fa/fa rats [1]; 02.00 p.m. next day, RP 1 mg/kg, TP 21.61 mg/kg orally once daily) is reported as 5.51 ± 0.19 mmol/L, the “Plasma insulin, day-night profile” value (Male Zucker fa/fa rats [1]; 02.00 p.m. the next day) is reported as 24.3 ± 3.7 ng/mL and the “Plasma insulin, day-night profile” value (Male Zucker fa/fa rats [1]; 05.00 a.m. (maximum)) is reported as 57.1 ± 8.6 ng/mL. For the same substance, the “Plasma insulin, day-night profile” value (Male Zucker fa/fa rats [1]; 05.00 p.m., RP 1 mg/kg, TP 21.61 mg/kg orally once daily) was “significantly lower than in the RP”, the “Mean blood glucose, day-night profile” value (Male Zucker fa/fa rats [1]; 08.00 a.m., TP 21.61 mg/kg orally once daily) was 5.64 ± 0.23 mmol/L and the “Plasma insulin, day-night profile” value (Male Zucker fa/fa rats [1]; 08.00 p.m.) was 41.9 ± 8.5 ng/mL. For the same substance, the “Mean blood glucose, day-night profile” value (Male Zucker fa/fa rats [1]; 11.00 a.m., RP 1 mg/kg, TP 21.61 mg/kg orally once daily) was 5.33 ± 0.14 mmol/L, the “Mean blood glucose, day-night profile” value (Male Zucker fa/fa rats [1]; 11.00 p.m., RP 1 mg/kg, TP 21.61 mg/kg orally once daily) was 8.34 ± 0.47 mmol/L and the “Increase of glycemia from 05.00 p.m. to 11.00 p.m.” value (Male Zucker fa/fa rats [1]; day 16) was “about 3 mmol/l”. For the same substance, the “Individual blood glucose values, range” value (Male Zucker fa/fa rats [1]; day 16, 05.00 p.m.) was 4.34 to 6.07 mmol/L, the “Mean blood glucose, day-night profile” value (Male Zucker fa/fa rats [1]; day 16, 05.00 p.m. before drug application, RP 1 mg/kg, TP 21.61 mg/kg orally once daily) was 5.25 ± 0.16 mmol/L and the “Blood glucose in the day-night profile” value (Male Zucker fa/fa rats [1]; given once daily) was < 8.3 mmol/L. For the same substance, the “Economization (saving) of insulin compared to the control” value (Male Zucker fa/fa rats [1]; obese Zucker rat, subchronic treatment) was 45%, the “Transport via the PepT1 intestinal peptide transporter” value [2] was “actively transported” and the Hyperinsulinemia (Male Zucker fa/fa rats [3]; given once daily) was “reduced”. The Morning blood glucose (Male Zucker fa/fa rats [3]; given once daily) was “normalized”, the “Time until morning blood glucose was reduced to a normal value” (Male Zucker fa/fa rats [3]; once daily oral) was ≤ 5 days and the “Plasma insulin during 14 days in comparison to the control animals” value (Male Zucker fa/fa rats [3]; rat, in vivo) was “slightly decrease insulin concentration”.

— US20010051646A1, “Method for the improvement of islet signaling in diabetes mellitus and for its prevention” (priority 2000, published 2001)
